Reference: patent publication EP4356909A1, “1-(SULFONYL)-N-PHENYLPYRROLIDINE-2-CARBOXAMIDES DERIVATIVES AND USE THEREOF” (Selabtec Sciences, SLU, priority 2022, dated 2024)

Experiments:
[1] = tested on: SKNBE2; test: Proliferation assay, Methyl violet staining; type: cell-based; settings: inhibition values; neuroblastoma cell line; 5 days of incubation; mean of 6 wells
Method: (§1) Compound INK-150.46 (or SLB-605) was assayed against several cancer cell lines in proliferation assays.
(§2) The measurements were taken using an in vitro test to measure cell growth based on Methyl violet staining after 5 days of incubation with the aforementioned drug or control vehicle (DMSO). The procedure was carried out in a 96-well plate. After 1 wash with phosphate-buffered saline (PBS), cells were stained for 20 minutes at room temperature with Methyl violet (0.5 % w/v in water). After 5 washes with PBS, and the addition of acetic acid (10% in water), plates were read in a spectrophotometer at 590 nm. All conditions were tested in 6 independent wells and results expressed as a mean of all replicates.

[2] = tested on: U2OS; test: Proliferation assay, Methyl violet staining; type: cell-based; settings: osteosarcoma (OS) cell line; 5 days of incubation (Figure 7)
Method: as §1, §2

[3] = tested on: SHSY5Y; test: Proliferation assay, Methyl violet staining; type: cell-based; settings: inhibition values; neuroblastoma cell line; 5 days of incubation; mean of 6 wells
Method: as §1, §2

[4] = tested on: RD; test: Proliferation assay, Methyl violet staining; type: cell-based; settings: inhibition values; rhabdomyosarcoma cell line; 5 days of incubation; mean of 6 wells
Method: as §1, §2

[5] = tested on: RH4; test: Proliferation assay, Methyl violet staining; type: cell-based; settings: inhibition values; rhabdomyosarcoma cell line; 5 days of incubation; mean of 6 wells
Method: as §1, §2

[6] = tested on: NFATc activation in HEK 293T cells; test: NFATc activation, 3xNFAT-luc dual-luciferase reporter assay; type: cell-based, human; settings: HEK 293T cells stimulated with ionomycin, PMA and CaCl2; compounds for 2 hours; at least at 100, 50 and 20 µM (Figure 1)
Method: To determine the effect of compounds of formula (I) on NFATc activation, HEK 293T cells were transfected with 3xNFAT-luc reporter gene and Renilla-luc plasmid as control of gene transfection. After 24 hours, to activate the cellular CN -NFATc signaling pathway, cells were stimulated with ionomycin (lo), PMA and CaCl2 for 4 h to raise intracellular concentration of calcium. As positive control of inhibition of CN activity, cells were treated with 1 µM of CsA 30 min prior to Io/PMA/CaCl2 stimulation. Then, cells were treated with compounds of formula (I) at several concentrations for 2 hours and light units analyzed following manufacture's protocol of the dual-luciferase reporter assay system (Figure 1, Functional effect of pair related structure compounds on NFATc activation).

## Cc1c(Cl)cc(F)cc1S(=O)(=O)N1CCC[C@H]1C(=O)N(Cn1nnc2ccccc21)c1ccccc1 [INK-150.46, (S)-N-((1H-Benzo[d][1,2,3]triazol-1-yl)methyl)-1-((3-chloro-5-fluoro-2-methylphenyl)sulfonyl)-N-phenylpyrrolidine-2-carboxamide]
[1]
  Effect over SKNBE2 (%): 59.5%
[2]
  inhibitory effect over U2OS (proliferation): inhibitory effect
[3]
  Effect over SHSY5Y (%): 48.8%
[4]
  Effect over RD (%): 75%
[5]
  Effect over RH4 (%): 78.1%
[6]
  NFATc activation: strongly inhibits NFATc activation
